Where two headings read alike, the source gives them in different places.
Conditions: oral tablets, placebo group 6 patients
Procedure: Subjects will be stratified at randomization for use/non-use of AChE inhibitors. A target of 201 subjects (67 subjects per arm) in 3 treatment groups are enrolled for 12 Months with optional follow-on treatment after Month 12 (2 treatment groups).
The intraday dosing interval is approximately 12 hours. Study drug is instructed to be taken at approximately the same time each day during the participation in the 12-month study. Study medication may be taken with or without food.

C[C@@H](C(=O)O)c1ccc(-c2ccccc2)c(F)c1 [(R)-2-(2-fluoro-4-biphenyl)propionic acid]
patients exhibiting urinary incontinence (400 mg BID group (800 mg/day), p value vs. placebo = 0.028): 0 patients
patients exhibiting urinary incontinence (800 mg BID group (1600 mg/day), p value vs. placebo = 0.063): 1 patient

Source: patent US20070015832A1, “Methods of treating overactive bladder and urinary incontinence” (Myriad Genetics, Incorporated, priority 2005, published 2007)
